In patent US20260286396A1, “AXL KNOCK OUT CAR T CELLS AND METHODS FOR USE THEREOF” (priority 2023, published 2026):

System: CART19 cells
Test: RNA sequencing of CART19 cells with Ingenuity pathway analysis (pathways, upstream regulators)
Type: cell-based, human
Description: CART19 cells were isolated using CD4 and CD8 microbeads to […] the JeKo-1 target cells; this isolation step was performed twice to eliminate the possible contamination of JeKo-1 cells. RNA was isolated from the CART19 cells using QIAGEN RNEASY® Plus Mini Kit. RNA was further treated with DNase I (QIAGEN) and purified using RNA Clean & Concentrator (Zymo Research). […] The fastq files were viewed in FastQC to check for quality (Cox et al., Mol Ther., 29 (4): 1529-1540, 2020). After verifying the lack of adapter sequences with FastQC, Cutadapt (Martin, EMBnet, 17:10-12, 2011) was used to filter for reads greater than 32 base pairs. Output files were re-checked for quality using FastQC. The latest human reference genome (GRCh38.p13) was downloaded from NCBI. Genome index files were generated using STAR (Cox et al. 2020, supra, and Dobin et al., Bioinformatics, 29:15-21, 2012). Paired end reads from fastq files were mapped to the genome for each condition. HTSeq was used to generate expression counts for each gene (Cox et al. 2020, supra; and Putri et al., Bioinformatics, 38:2943-2945, 2022). […] The disruption efficiency of the CRISPR/Cas9 GM-CSF knockout was determined using targeted sequencing through PCR and TIDE analysis (software available at tide.nki.nl) as described elsewhere (Sakemura et al. 2021, supra).
RNA sequencing of CART19 cells was then performed. […] Data were analyzed with the use of QIAGEN Ingenuity Pathway Analysis (IPA) (digitalinsights.qiagen.com/IPA; Krämer et al., Bioinformatics 30 (4): 523-530, 2014).

[1] = Upstream Regulator KLF11, 30 nM, 24 hours vs vehicle
[2] = Upstream Regulator LAMA4, 30 nM, 24 hours vs vehicle
[3] = Upstream Regulator LARP1, flag bias, 30 nM, 24 hours vs vehicle
[4] = Upstream Regulator MFSD2A, 30 nM, 24 hours vs vehicle
[5] = Upstream Regulator MSC, 30 nM, 24 hours vs vehicle
[6] = Upstream Regulator MYC, 30 nM, 24 hours vs vehicle
[7] = Upstream Regulator MYCN, 30 nM, 24 hours vs vehicle
[8] = Upstream Regulator NELFB, 30 nM, 24 hours vs vehicle
[9] = Upstream Regulator NFAT5, 30 nM, 24 hours vs vehicle
[10] = Upstream Regulator NR3C1, 30 nM, 24 hours vs vehicle
[11] = Upstream Regulator NT5E, 30 nM, 24 hours vs vehicle
[12] = Upstream Regulator NUPR1, 30 nM, 24 hours vs vehicle
[13] = Upstream Regulator PAX5, 30 nM, 24 hours vs vehicle
[14] = Upstream Regulator PDGFB, 30 nM, 24 hours vs vehicle
[15] = Upstream Regulator REL, 30 nM, 24 hours vs vehicle
[16] = Upstream Regulator RXRB, 30 nM, 24 hours vs vehicle
[17] = Upstream Regulator SATB1, 30 nM, 24 hours vs vehicle
[18] = Upstream Regulator SHC1, 30 nM, 24 hours vs vehicle
[19] = Upstream Regulator SMAD3, 30 nM, 24 hours vs vehicle
[20] = Upstream Regulator STAT3, 30 nM, 24 hours vs vehicle
[21] = Upstream Regulator STAT6, 30 nM, 24 hours vs vehicle
[22] = Upstream Regulator STIM1, 30 nM, 24 hours vs vehicle
[23] = Upstream Regulator SYK, 30 nM, 24 hours vs vehicle
[24] = Upstream Regulator TAFAZZIN, 30 nM, 24 hours vs vehicle
[25] = Upstream Regulator TCF3, 30 nM, 24 hours vs vehicle
[26] = Upstream Regulator TCF12, 30 nM, 24 hours vs vehicle
[27] = Upstream Regulator TCR, 30 nM, 24 hours vs vehicle
[28] = Upstream Regulator TFRC, 30 nM, 24 hours vs vehicle
[29] = Upstream Regulator TGF BETA, 30 nM, 24 hours vs vehicle
[30] = Upstream Regulator TGFB2, 30 nM, 24 hours vs vehicle
[31] = Upstream Regulator TIGIT, 30 nM, 24 hours vs vehicle
[32] = Upstream Regulator TLR9, 30 nM, 24 hours vs vehicle
[33] = Upstream Regulator TNF, 30 nM, 24 hours vs vehicle
[34] = Upstream Regulator USP38, 30 nM, 24 hours vs vehicle
[35] = Upstream Regulator ZBTB16, 30 nM, 24 hours vs vehicle
[36] = upstream regulator ACE, CART19 stimulated with JeKo-1, 30 nM TP-0903 vs vehicle, 24 hours
[37] = upstream regulator AMBRA1, CART19 stimulated with JeKo-1, 30 nM TP-0903 vs vehicle, 24 hours
[38] = upstream regulator CCR2, CART19 stimulated with JeKo-1, 30 nM TP-0903 vs vehicle, 24 hours
[39] = upstream regulator CIP2A, CART19 stimulated with JeKo-1, 30 nM TP-0903 vs vehicle, 24 hours
[40] = upstream regulator ERBB3, CART19 stimulated with JeKo-1, 30 nM TP-0903 vs vehicle, 24 hours
[41] = upstream regulator HGF, CART19 stimulated with JeKo-1, 30 nM TP-0903 vs vehicle, 24 hours
[42] = upstream regulator IKBKG, CART19 stimulated with JeKo-1, 30 nM TP-0903 vs vehicle, 24 hours
[43] = upstream regulator IL7, CART19 stimulated with JeKo-1, 30 nM TP-0903 vs vehicle, 24 hours
[44] = upstream regulator PPARD, CART19 stimulated with JeKo-1, 30 nM TP-0903 vs vehicle, 24 hours
[45] = upstream regulator SMAD4, CART19 stimulated with JeKo-1, 30 nM TP-0903 vs vehicle, 24 hours

`CN1CCN(Cc2ccc(Nc3ncc(Cl)c(Nc4ccccc4S(=O)(=O)N(C)C)n3)cc2)CC1` [TP-0903, Dubermatinib] was tested, and the “Expr Log Ratio” value [1] was −0.037, the “Predicted Activation State” value [1] was “inhibited” and the “Activation Z-Score” value [2] was 2.985. The “Expr Log Ratio” value [2] was −1.478, the “Predicted Activation State” value [2] was “activated” and the “Expr Log Ratio” value (Upstream Regulator LARP1, 30 nM, 24 hours vs vehicle) was −0.22. The “Activation Z-Score” value [3] was 3.461, the “Predicted Activation State” value [3] was “activated” and the “Expr Log Ratio” value (Upstream Regulator MED12, 30 nM, 24 hours vs vehicle) was 0.075. The “Activation Z-Score” value (Upstream Regulator MEK, 30 nM, 24 hours vs vehicle) was −1.682, the “Activation Z-Score” value [4] was 2.219 and the “Expr Log Ratio” value [4] was −0.204. The “Predicted Activation State” value [4] was “activated”, the “Activation Z-Score” value (Upstream Regulator MIR-34A-5P (AND OTHER MIRNAS W/SEED GGCAGUG), flag bias, 30 nM, 24 hours vs vehicle) was 0.22 and the “Activation Z-Score” value (Upstream Regulator MIR-155-5P (MIRNAS W/SEED UAAUGCU), flag bias, 30 nM, 24 hours vs vehicle) was 1.95. For the same molecule, the “Activation Z-Score” value (Upstream Regulator MIR-155, 30 nM, 24 hours vs vehicle) was 0.713, the “Activation Z-Score” value [5] was 0.707 and the “Expr Log Ratio” value [5] was 0.103. The “Activation Z-Score” value [6] was −1.663, the “Expr Log Ratio” value [6] was −0.584 and the “Activation Z-Score” value [7] was −2.592. For the same molecule, the “Expr Log Ratio” value [7] was −0.217, the “Predicted Activation State” value [7] was “inhibited” and the “Activation Z-Score” value [8] was −1. The “Expr Log Ratio” value [8] was 0.032, the “Activation Z-Score” value [9] was −0.466 and the “Expr Log Ratio” value [9] was −0.006. The “Activation Z-Score” value [10] was 0.182, the “Expr Log Ratio” value [10] was 0.097 and the “Activation Z-Score” value [11] was 0.447. For the same molecule, the “Expr Log Ratio” value [11] was 0.513, the “Activation Z-Score” value [12] was 0.396 and the “Expr Log Ratio” value [12] was 1.017. For the same molecule, the “Activation Z-Score” value [13] was −1.01, the “Expr Log Ratio” value [13] was −0.607 and the “Activation Z-Score” value (Upstream Regulator PDGF BB, 30 nM, 24 hours vs vehicle) was −0.275. The “Activation Z-Score” value [14] was −1.513, the “Expr Log Ratio” value [14] was 0.018 and the “Activation Z-Score” value (Upstream Regulator PKA, 30 nM, 24 hours vs vehicle) was −1.077. For the same molecule, the “Activation Z-Score” value (Upstream Regulator PKC(S), 30 nM, 24 hours vs vehicle) was 1.03, the “Expr Log Ratio” value (Upstream Regulator POU2F2, 30 nM, 24 hours vs vehicle) was −0.143 and the “Activation Z-Score” value (Upstream Regulator POU2F2, flag bias, 30 nM, 24 hours vs vehicle) was −1. The “Activation Z-Score” value [15] was −0.988, the “Expr Log Ratio” value [15] was 0.266 and the “Activation Z-Score” value [16] was 1.155. The “Expr Log Ratio” value [16] was −0.076, the “Activation Z-Score” value [17] was −1.359 and the “Expr Log Ratio” value [17] was −0.104. The “Activation Z-Score” value [18] was 0.963, the “Expr Log Ratio” value [18] was 0.076 and the “Activation Z-Score” value [19] was −1.454. The “Expr Log Ratio” value [19] was 0.337, the “Activation Z-Score” value [20] was −1.117 and the “Expr Log Ratio” value [20] was 0.116. For the same molecule, the “Activation Z-Score” value [21] was −2.16, the “Expr Log Ratio” value [21] was −0.088 and the “Predicted Activation State” value [21] was “inhibited”. The “Activation Z-Score” value [22] was −3, the “Expr Log Ratio” value [22] was 0.123 and the “Predicted Activation State” value [22] was “inhibited”. For the same molecule, the “Activation Z-Score” value [23] was −1.203, the “Expr Log Ratio” value [23] was −0.298 and the “Activation Z-Score” value [24] was 0. For the same molecule, the “Expr Log Ratio” value [24] was −0.111, the “Activation Z-Score” value [25] was −0.213 and the “Expr Log Ratio” value [25] was −0.061. For the same molecule, the “Activation Z-Score” value [26] was −0.207, the “Expr Log Ratio” value [26] was 0.077 and the “Activation Z-Score” value [27] was −2.683. For the same molecule, the “Predicted Activation State” value [27] was “inhibited”, the “Activation Z-Score” value [28] was 2.335 and the “Expr Log Ratio” value [28] was −0.051. For the same molecule, the “Predicted Activation State” value [28] was “activated”, the “Activation Z-Score” value [29] was −2.031 and the “Predicted Activation State” value [29] was “inhibited”. For the same molecule, the “Activation Z-Score” value [30] was −1.591, the “Expr Log Ratio” value [30] was −1.361 and the “Activation Z-Score” value [31] was −1.982. The “Expr Log Ratio” value [31] was 0.2, the “Activation Z-Score” value [32] was −0.796 and the “Expr Log Ratio” value [32] was −0.186. The “Activation Z-Score” value [33] was −2.543, the “Predicted Activation State” value [33] was “inhibited” and the “Expr Log Ratio” value (Upstream Regulator TP53, 30 nM, 24 hours vs vehicle) was 0.089. The “Activation Z-Score” value [34] was −1.213, the “Expr Log Ratio” value [34] was −0.109 and the “Activation Z-Score” value [35] was −0.683. For the same molecule, the “Expr Log Ratio” value [35] was −0.061, the “Activation Z-Score” value [36] was 1 and the “Expr Log Ratio” value [36] was −1.023. For the same molecule, the “Activation Z-Score” value [37] was 1.808, the “Expr Log Ratio” value [37] was −0.003 and the “Activation Z-Score” value [38] was 0.314. For the same molecule, the “Expr Log Ratio” value [38] was −1.545, the “Activation Z-Score” value [39] was 0 and the “Expr Log Ratio” value [39] was 0.131. The “Activation Z-Score” value [40] was −1, the “Expr Log Ratio” value [40] was −1.599 and the “Expr Log Ratio” value (upstream regulator GPD1, CART19 stimulated with JeKo-1, 30 nM TP-0903 vs vehicle, 24 hours) was 0.348. For the same molecule, the “Activation Z-Score” value [41] was −0.973, the “Expr Log Ratio” value [41] was −0.131 and the “Activation Z-Score” value [42] was −0.788. For the same molecule, the “Expr Log Ratio” value [42] was 0.136, the “Activation Z-Score” value [43] was −0.288 and the “Expr Log Ratio” value [43] was 0.684. For the same molecule, the “Activation Z-Score” value (upstream regulator LET-7A-5P (AND OTHER MIRNAS W/SEED GAGGUAG), flag bias, CART19 stimulated with JeKo-1, 30 nM TP-0903 vs vehicle, 24 hours) was 1.25, the “Activation Z-Score” value (upstream regulator NFKB (COMPLEX), CART19 stimulated with JeKo-1, 30 nM TP-0903 vs vehicle, 24 hours) was −1.386 and the “Activation Z-Score” value (upstream regulator PI3K (COMPLEX), CART19 stimulated with JeKo-1, 30 nM TP-0903 vs vehicle, 24 hours) was −1.952. The “Activation Z-Score” value [44] was −0.089, the “Expr Log Ratio” value [44] was −0.036 and the “Activation Z-Score” value (upstream regulator SCGB1A1, CART19 stimulated with JeKo-1, 30 nM TP-0903 vs vehicle, 24 hours) was 1.993. The “Activation Z-Score” value [45] was −0.02, the “Expr Log Ratio” value [45] was −0.097 and the “Activation Z-Score” value (upstream regulator TFPI2, CART19 stimulated with JeKo-1, 30 nM TP-0903 vs vehicle, 24 hours) was 1.131.
